PubChem BioAssay (NCI)
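These data come from cells grown in 96-well plates and exposed to compound for 48 hours at five concentrations. GI50 marks 50% less growth. TGI marks complete inhibition of growth.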

Columns and labels:
Assay in all cases: NCI tumour cell line growth inhibition, 48 h
MDA-MB-231 breast = system: MDA-MB-231 breast
HS 578T breast = system: HS 578T breast
HOP-62 NSCLC = system: HOP-62 NSCLC
BT-549 breast = system: BT-549 breast
OVCAR-5 ovarian = system: OVCAR-5 ovarian
HT29 colon = system: HT29 colon
CAKI-1 renal = system: CAKI-1 renal
DU-145 prostate = system: DU-145 prostate
NCI-H522 lung = system: NCI-H522 lung
A498 renal = system: A498 renal
MCF7 breast = system: MCF7 breast
MDA-MB-435 = system: MDA-MB-435
UACC-62 melanoma = system: UACC-62 melanoma
SF-295 CNS = system: SF-295 CNS
COLO 205 colon = system: COLO 205 colon
RXF 393 renal = system: RXF 393 renal
SW-620 colon = system: SW-620 colon
HOP-92 NSCLC = system: HOP-92 NSCLC
SF-268 CNS = system: SF-268 CNS
EKVX NSCLC = system: EKVX NSCLC
SK-MEL-2 melanoma = system: SK-MEL-2 melanoma
NCI-H226 lung = system: NCI-H226 lung
MALME-3M melanoma = system: MALME-3M melanoma
OVCAR-8 ovarian = system: OVCAR-8 ovarian
PC-3 prostate = system: PC-3 prostate
SN12C renal = system: SN12C renal
OVCAR-4 ovarian = system: OVCAR-4 ovarian
UO-31 renal = system: UO-31 renal
786-0 renal = system: 786-0 renal
A549 NSCLC = system: A549 NSCLC
IGROV1 ovarian = system: IGROV1 ovarian
M14 melanoma = system: M14 melanoma
NCI-H460 lung = system: NCI-H460 lung
T-47D breast = system: T-47D breast
HCT-116 colon = system: HCT-116 colon
NCI/ADR-RES ovarian = system: NCI/ADR-RES ovarian
UACC-257 melanoma = system: UACC-257 melanoma
SK-MEL-5 melanoma = system: SK-MEL-5 melanoma
HCT-15 colon = system: HCT-15 colon
K-562 leukemia = system: K-562 leukemia
SNB-19 CNS = system: SNB-19 CNS
SR leukemia = system: SR leukemia
HCC-2998 colon = system: HCC-2998 colon
SK-MEL-28 melanoma = system: SK-MEL-28 melanoma
U251 CNS = system: U251 CNS
MOLT-4 leukemia = system: MOLT-4 leukemia
LOX IMVI melanoma = system: LOX IMVI melanoma
SF-539 CNS = system: SF-539 CNS
ACHN renal = system: ACHN renal
HL-60(TB) leukemia = system: HL-60(TB) leukemia
NCI-H23 lung = system: NCI-H23 lung
CCRF-CEM leukemia = system: CCRF-CEM leukemia
OVCAR-3 ovarian = system: OVCAR-3 ovarian
SK-OV-3 ovarian = system: SK-OV-3 ovarian
KM12 colon = system: KM12 colon
TK-10 renal = system: TK-10 renal
SNB-75 CNS = system: SNB-75 CNS

Compound `CCCNNC(=O)c1ccc(-c2ccc(NC(=O)CCCCCCC(=O)N[C@H](C(=O)N3C[C@H](O)C[C@H]3C(=O)N[C@@H](C)c3ccc(-c4scnc4C)cc3)C(C)(C)C)cc2)cc1` has a GI50 (MDA-MB-231 breast) of 1.37 µM, a TGI (MDA-MB-231 breast) greater than 65.1 µM and a GI50 (HS 578T breast) of 1.91 µM. The TGI (HS 578T breast) was greater than 100 µM, the GI50 (HOP-62 NSCLC) was 2.46 µM and the TGI (HOP-62 NSCLC) was greater than 100 µM. The GI50 (BT-549 breast) was 5.29 µM, the TGI (BT-549 breast) was greater than 100 µM and the GI50 (OVCAR-5 ovarian) was 1.88 µM. The TGI (OVCAR-5 ovarian) was greater than 100 µM, the GI50 (HT29 colon) was 0.893 µM and the TGI (HT29 colon) was greater than 100 µM. The GI50 (CAKI-1 renal) was 7.41 µM, the TGI (CAKI-1 renal) was greater than 100 µM and the GI50 (DU-145 prostate) was 2.01 µM. For the same compound, the TGI (DU-145 prostate) was greater than 100 µM, the GI50 (NCI-H522 lung) was 1.12 µM and the TGI (NCI-H522 lung) was greater than 100 µM. The GI50 (A498 renal) was 1.41 µM, the TGI (A498 renal) was 4.36 µM and the GI50 (MCF7 breast) was 0.407 µM. It also gave a TGI (MCF7 breast) greater than 100 µM, a GI50 (MDA-MB-435) of 0.848 µM and a TGI (MDA-MB-435) greater than 39.3 µM. For the same compound, the GI50 (UACC-62 melanoma) was 1.44 µM, the TGI (UACC-62 melanoma) was 6.94 µM and the GI50 (SF-295 CNS) was 5.97 µM. The TGI (SF-295 CNS) was greater than 100 µM, the GI50 (COLO 205 colon) was 0.785 µM and the TGI (COLO 205 colon) was 3.25 µM. For the same compound, the GI50 (RXF 393 renal) was 0.465 µM, the TGI (RXF 393 renal) was 2.37 µM and the GI50 (SW-620 colon) was 1.28 µM. It also gave a TGI (SW-620 colon) of 9.26 µM, a GI50 (HOP-92 NSCLC) of 0.258 µM and a TGI (HOP-92 NSCLC) of 2.14 µM. The GI50 (SF-268 CNS) was 3.63 µM, the TGI (SF-268 CNS) was greater than 100 µM and the GI50 (EKVX NSCLC) was greater than 36.6 µM. The TGI (EKVX NSCLC) was greater than 100 µM, the GI50 (SK-MEL-2 melanoma) was 2.7 µM and the TGI (SK-MEL-2 melanoma) was greater than 100 µM. The GI50 (NCI-H226 lung) was 9.28 µM, the TGI (NCI-H226 lung) was greater than 100 µM and the GI50 (MALME-3M melanoma) was 0.457 µM. The TGI (MALME-3M melanoma) was greater than 20.3 µM, the GI50 (OVCAR-8 ovarian) was 2.98 µM and the TGI (OVCAR-8 ovarian) was greater than 100 µM. For the same compound, the GI50 (PC-3 prostate) was 1.25 µM, the TGI (PC-3 prostate) was greater than 100 µM and the GI50 (SN12C renal) was 4.21 µM. It also gave a TGI (SN12C renal) greater than 100 µM, a GI50 (OVCAR-4 ovarian) greater than 100 µM and a TGI (OVCAR-4 ovarian) greater than 100 µM. It also gave a GI50 (UO-31 renal) greater than 100 µM, a TGI (UO-31 renal) greater than 100 µM and a GI50 (786-0 renal) of 5.02 µM. The TGI (786-0 renal) was greater than 100 µM, the GI50 (A549 NSCLC) was greater than 95.1 µM and the TGI (A549 NSCLC) was greater than 100 µM. The GI50 (IGROV1 ovarian) was 0.442 µM, the TGI (IGROV1 ovarian) was greater than 100 µM and the GI50 (M14 melanoma) was 2.86 µM. For the same compound, the TGI (M14 melanoma) was greater than 100 µM, the GI50 (NCI-H460 lung) was 2.63 µM and the TGI (NCI-H460 lung) was greater than 100 µM. For the same compound, the GI50 (T-47D breast) was 0.345 µM, the TGI (T-47D breast) was greater than 100 µM and the GI50 (HCT-116 colon) was 0.41 µM. It also gave a TGI (HCT-116 colon) of 5.28 µM, a GI50 (NCI/ADR-RES ovarian) greater than 100 µM and a TGI (NCI/ADR-RES ovarian) greater than 100 µM. For the same compound, the GI50 (UACC-257 melanoma) was 0.845 µM, the TGI (UACC-257 melanoma) was greater than 100 µM and the GI50 (SK-MEL-5 melanoma) was 2.08 µM. It also gave a TGI (SK-MEL-5 melanoma) of 8.47 µM, a GI50 (HCT-15 colon) greater than 100 µM and a TGI (HCT-15 colon) greater than 100 µM. For the same compound, the GI50 (K-562 leukemia) was 0.524 µM, the TGI (K-562 leukemia) was greater than 100 µM and the GI50 (SNB-19 CNS) was 2.62 µM. The TGI (SNB-19 CNS) was greater than 47.6 µM, the GI50 (SR leukemia) was 0.386 µM and the TGI (SR leukemia) was greater than 100 µM. The GI50 (HCC-2998 colon) was 2.05 µM, the TGI (HCC-2998 colon) was 11.1 µM and the GI50 (SK-MEL-28 melanoma) was 0.599 µM. The TGI (SK-MEL-28 melanoma) was greater than 100 µM, the GI50 (U251 CNS) was 1.03 µM and the TGI (U251 CNS) was 8.46 µM. For the same compound, the GI50 (MOLT-4 leukemia) was 0.41 µM, the TGI (MOLT-4 leukemia) was greater than 100 µM and the GI50 (LOX IMVI melanoma) was 0.0387 µM. It also gave a TGI (LOX IMVI melanoma) of 1.08 µM, a GI50 (SF-539 CNS) of 2.05 µM and a TGI (SF-539 CNS) greater than 100 µM. The GI50 (ACHN renal) was greater than 100 µM, the TGI (ACHN renal) was greater than 100 µM and the GI50 (HL-60(TB) leukemia) was 0.394 µM. The TGI (HL-60(TB) leukemia) was greater than 100 µM, the GI50 (NCI-H23 lung) was 2.22 µM and the TGI (NCI-H23 lung) was greater than 100 µM. It also gave a GI50 (CCRF-CEM leukemia) of 0.357 µM, a TGI (CCRF-CEM leukemia) greater than 100 µM and a GI50 (OVCAR-3 ovarian) of 0.917 µM. The TGI (OVCAR-3 ovarian) was 12.7 µM, the GI50 (SK-OV-3 ovarian) was 5.66 µM and the TGI (SK-OV-3 ovarian) was greater than 100 µM. It also gave a GI50 (KM12 colon) of 3.34 µM, a TGI (KM12 colon) greater than 100 µM and a GI50 (TK-10 renal) of 1.8 µM. The TGI (TK-10 renal) was greater than 100 µM, the GI50 (SNB-75 CNS) was 1.8 µM and the TGI (SNB-75 CNS) was greater than 100 µM.
